Data taken from ChEMBL document CHEMBL1201862, “PubChem BioAssay data set” (2004).
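1) Cells in 96-well plates. 2) Compound, 48 h, 5 concentrations. 3) Linear interpolation between surrounding doses. 4) Unreached endpoint = highest concentration. Here, GI50 denotes the concentration required for 50% inhibition of growth.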 Activity calls are given as the source filed them. Rule as the data show it: active = GI50 up to about 1.1 µM and inactive = higher.

Experiments:
Experiment in all cases: NCI tumour cell line growth inhibition, 48 h
NCI-H522 = tested on: NCI-H522
U-251 = tested on: U-251
NCI-H460 = tested on: NCI-H460
CCRF-CEM = tested on: CCRF-CEM
DU-145 = tested on: DU-145
MDA-MB-435 = tested on: MDA-MB-435
TK-10 = tested on: TK-10
HL-60 = tested on: HL-60
786-0 = tested on: 786-0
IGROV-1 = tested on: IGROV-1
NCI-H226 = tested on: NCI-H226
KM12 = tested on: KM12
SK-OV-3 = tested on: SK-OV-3
SF-268 = tested on: SF-268
LOX IMVI = tested on: LOX IMVI
SK-MEL-28 = tested on: SK-MEL-28
SN12C = tested on: SN12C
CAKI-1 = tested on: CAKI-1
HCT-15 = tested on: HCT-15
COLO 205 = tested on: COLO 205

Compound	GI50 (NCI-H522)	GI50 (U-251)	GI50 (NCI-H460)	GI50 (CCRF-CEM)	GI50 (DU-145)	GI50 (MDA-MB-435)	GI50 (TK-10)	GI50 (HL-60)	GI50 (786-0)	GI50 (IGROV-1)	GI50 (NCI-H226)	GI50 (KM12)	GI50 (SK-OV-3)	GI50 (SF-268)	GI50 (LOX IMVI)	GI50 (SK-MEL-28)	GI50 (SN12C)	GI50 (CAKI-1)	GI50 (HCT-15) [µM]	GI50 (COLO 205)
CCc1cc2c(oc3c4ccccc4ccc23)c(=O)[nH]1	> 10 µM (inactive)	> 10 µM (inactive)	> 10 µM (inactive)	> 10 µM (inactive)	> 10 µM (inactive)	> 10 µM (inactive)	> 10 µM (inactive)	> 10 µM (inactive)	> 10 µM (inactive)	> 10 µM (inactive)	> 10 µM (inactive)	> 10 µM (inactive)	> 10 µM (inactive)	> 10 µM (inactive)	> 10 µM (inactive)					
COc1ccccc1N1C(=O)/C(=C\c2cccc(Oc3ccccc3)c2)S(=O)(=O)C1c1ccccc1 (stereo not drawn)	22.5 µM (inactive)	53.6 µM (inactive)	53.7 µM (inactive)	33.9 µM (inactive)	55.6 µM (inactive)	30.8 µM (inactive)	58.7 µM (inactive)		49.4 µM (inactive)		> 100 µM (inactive)	28.2 µM (inactive)	> 100 µM (inactive)		40.1 µM (inactive)	71.1 µM (inactive)	> 100 µM (inactive)	> 100 µM (inactive)	32.4	23.1 µM (inactive)
CCOC(=O)C(C(=O)OCC)=C1NC2(c3ccccc3Nc3ccc(C)cc32)C(C#N)S1 (stereo not drawn)	11.2 µM (inactive)	5.57 µM (inactive)	3.27 µM (inactive)	4.27 µM (inactive)	11.3 µM (inactive)	5.65 µM (inactive)	8.47 µM (inactive)	13.1 µM (inactive)	6.79 µM (inactive)	7.36 µM (inactive)	11.5 µM (inactive)	4.43 µM (inactive)	13.4 µM (inactive)	9.12 µM (inactive)	12.1 µM (inactive)	18.2 µM (inactive)	3.24 µM (inactive)	11.8 µM (inactive)	6	4.04 µM (inactive)
C=CCOC(=O)N1c2ccc(O[Si](C)(C)C(C)(C)C)cc2[C@@]23O[C@@]24[C@@H]1C#C/C=C\C#C[C@]3(O)C(OC)(OC)C[C@@H]4C	44.6 µM (inactive)	18.6 µM (inactive)	11.5 µM (inactive)	> 23.7 µM (inactive)	> 80 µM (inactive)	> 85.1 µM (inactive)	> 30.5 µM (inactive)		43.5 µM (inactive)	> 100 µM (inactive)	13.6 µM (inactive)	> 100 µM (inactive)	7.36 µM (inactive)	97.7 µM (inactive)	16.7 µM (inactive)	> 100 µM (inactive)	> 84.7 µM (inactive)	2.71 µM (inactive)	> 100	> 26.8 µM (inactive)
COC1CC(OC2C(C)OC(OC3C(C)OC(OC4C(C)OC(O[C@H]5CC[C@@]6(C)C(=CC[C@]7(O)[C@@H]6C[C@@H](OC(C)=O)[C@@]6(C)[C@]7(O)CC[C@@]6(O)C(C)=O)C5)CC4OC)CC3OC)CC2OC)OC(C)C1O (stereo partly drawn)	> 25 µM (inactive)	> 25 µM (inactive)		> 25 µM (inactive)	> 25 µM (inactive)	> 25 µM (inactive)	> 25 µM (inactive)	> 25 µM (inactive)	> 25 µM (inactive)	> 25 µM (inactive)	> 25 µM (inactive)	> 25 µM (inactive)	> 25 µM (inactive)	> 25 µM (inactive)	> 25 µM (inactive)		> 25 µM (inactive)	> 25 µM (inactive)	> 25	> 25 µM (inactive)
C=C[C@H]1CN2CC[C@H]1C[C@@H]2[C@@H](O)c1ccnc2ccccc12 [CINCHONINE]	> 100 µM (inactive)	> 100 µM (inactive)	> 100 µM (inactive)		> 100 µM (inactive)	> 100 µM (inactive)	> 100 µM (inactive)	> 100 µM (inactive)	> 100 µM (inactive)	19.6 µM (inactive)	> 100 µM (inactive)	> 100 µM (inactive)	> 100 µM (inactive)	> 100 µM (inactive)	5.4 µM (inactive)	> 100 µM (inactive)	> 100 µM (inactive)	> 100 µM (inactive)	> 100	> 100 µM (inactive)
COC1OC(C(=O)O)C2OC(C)(C)OC12 (stereo not drawn)	> 100 µM (inactive)	> 100 µM (inactive)	> 100 µM (inactive)	> 100 µM (inactive)	> 100 µM (inactive)	> 100 µM (inactive)	> 100 µM (inactive)		> 100 µM (inactive)	> 100 µM (inactive)	> 100 µM (inactive)	> 100 µM (inactive)	> 100 µM (inactive)	> 100 µM (inactive)	> 100 µM (inactive)	> 100 µM (inactive)	> 100 µM (inactive)	> 100 µM (inactive)	> 100	> 100 µM (inactive)
COC1O[C@@H]2CCN3C(=O)[C@@H](OC(=O)c4ccc([N+](=O)[O-])cc4)[C@H]1C23 (stereo partly drawn)	> 100 µM (inactive)	> 100 µM (inactive)	> 100 µM (inactive)	> 100 µM (inactive)	> 100 µM (inactive)	> 100 µM (inactive)	> 100 µM (inactive)		> 100 µM (inactive)	> 100 µM (inactive)	> 100 µM (inactive)	> 100 µM (inactive)	> 100 µM (inactive)	> 100 µM (inactive)	> 100 µM (inactive)		> 100 µM (inactive)	> 100 µM (inactive)		> 100 µM (inactive)
S=C(N/N=C\C(=N/NC(=S)N1CCCCC1)c1ccccc1)N1CCCCC1	1.62 µM (inactive)	1.84 µM (inactive)	2.14 µM (inactive)		1.57 µM (inactive)	1.91 µM (inactive)	1.8 µM (inactive)		1.85 µM (inactive)	1.76 µM (inactive)	1.84 µM (inactive)	2.03 µM (inactive)	1.91 µM (inactive)	1.99 µM (inactive)	3.33 µM (inactive)	1.9 µM (inactive)	1.95 µM (inactive)	2.15 µM (inactive)	2.4	2.03 µM (inactive)
Nc1nn2c(=O)c3ccccc3nc2s1	17.5 µM (inactive)	> 100 µM (inactive)	> 100 µM (inactive)	18.2 µM (inactive)	> 100 µM (inactive)	> 100 µM (inactive)	> 100 µM (inactive)		42.5 µM (inactive)	65.5 µM (inactive)	23.9 µM (inactive)	> 100 µM (inactive)	> 100 µM (inactive)	38.8 µM (inactive)	17.5 µM (inactive)	> 100 µM (inactive)	65.6 µM (inactive)	> 100 µM (inactive)	44.9	35.4 µM (inactive)
O=C1CNc2cc(N3CCN(c4ccccc4)CC3)ccc2N1	> 100 µM (inactive)	> 100 µM (inactive)	> 100 µM (inactive)	> 100 µM (inactive)	> 100 µM (inactive)	> 100 µM (inactive)	> 100 µM (inactive)	> 100 µM (inactive)	> 100 µM (inactive)	> 100 µM (inactive)	> 100 µM (inactive)	> 100 µM (inactive)	> 100 µM (inactive)	> 100 µM (inactive)	> 100 µM (inactive)	> 100 µM (inactive)		> 100 µM (inactive)	> 100	> 100 µM (inactive)
CN(C)c1ccc(/C=C2\N=C(NNc3ccccc3)NC2=O)cc1	18.8 µM (inactive)	14.3 µM (inactive)	19.1 µM (inactive)	< 0.01 µM (active)	28.4 µM (inactive)	21.5 µM (inactive)	20.8 µM (inactive)		17.9 µM (inactive)	23.4 µM (inactive)		13.2 µM (inactive)	27.5 µM (inactive)	27.3 µM (inactive)	27.8 µM (inactive)	29.1 µM (inactive)	17.7 µM (inactive)	26.2 µM (inactive)	22	15.6 µM (inactive)
COc1ccc(/C=C2/NC(=S)N=C2Cl)cc1	> 100 µM (inactive)	> 100 µM (inactive)		> 100 µM (inactive)	> 100 µM (inactive)	> 100 µM (inactive)	> 100 µM (inactive)	> 100 µM (inactive)	> 100 µM (inactive)	> 100 µM (inactive)	> 100 µM (inactive)	58.3 µM (inactive)	> 100 µM (inactive)	> 100 µM (inactive)	> 100 µM (inactive)	> 100 µM (inactive)	> 100 µM (inactive)	> 100 µM (inactive)	> 100	> 100 µM (inactive)
COc1ccc(S(=O)(=O)N2C(=O)CCC2C(=O)NC(N)=O)cc1 (stereo not drawn)	> 100 µM (inactive)	> 100 µM (inactive)	> 100 µM (inactive)	> 100 µM (inactive)	> 100 µM (inactive)	> 100 µM (inactive)	> 100 µM (inactive)	> 100 µM (inactive)	> 100 µM (inactive)	> 100 µM (inactive)	> 100 µM (inactive)	> 100 µM (inactive)	> 100 µM (inactive)		> 100 µM (inactive)	> 100 µM (inactive)	> 100 µM (inactive)	> 100 µM (inactive)	> 100	> 100 µM (inactive)
N#Cc1ccc(/C=C2\Cc3ccccc3C2=O)cc1	14.3 µM (inactive)		> 100 µM (inactive)	> 100 µM (inactive)	> 100 µM (inactive)	> 100 µM (inactive)	> 100 µM (inactive)	67.6 µM (inactive)	> 100 µM (inactive)		56.9 µM (inactive)	> 100 µM (inactive)	> 100 µM (inactive)	> 100 µM (inactive)		> 100 µM (inactive)	> 100 µM (inactive)	26.2 µM (inactive)	> 100	> 100 µM (inactive)
